The values below are quoted from earlier work in US11464838B2, “Optimized cancer stem cell vaccines” (COLORADO STATE UNIVERSITY RESEARCH FOUNDATION, priority 2015, dated 2022).

For this data set the following is noted: in vivo.
As to `CCCCC1=NC2(CCCC2)C(=O)N1Cc1ccc(-c2ccccc2-c2nnn[nH]2)cc1` [Irbesartan], the Bioavailability is reported as 70%.
On to `CCOc1nc2cccc(C(=O)O)c2n1Cc1ccc(-c2ccccc2-c2noc(=O)[nH]2)cc1` [Azilsartan], for which the Bioavailability is 60% and the “Biological Half-Life” value is 11 hours.
Consider `CCCCc1ncc(/C=C(\Cc2cccs2)C(=O)O)n1Cc1ccc(C(=O)O)cc1` [Eprosartan], for which the Bioavailability is reported as 13% and the “Biological Half-Life” value is recorded as 5 hours.
Turning to `CCCCc1nc(Cl)c(CO)n1Cc1ccc(-c2ccccc2-c2nn[nH]n2)cc1` [Losartan], the “Biological Half-Life” value is on record as 2 hours.
